# Columns and labels:
# [1] = test system: Mycosphaerella graminicola; anamorph: Septoria tritici (SEPTTR); assay: Fungicidal activity: leaf blotch of wheat (SEPTTR), wheat seedlings sprayed and inoculated; format: in vivo; details: 50 ppm, wheat plants (variety Yuma); for SEPTTR 1DP (% disease control rating): 1 Day Protectant; for SEPTTR 3DC (% disease control rating): 3 Day Curative
# Experimental: Technical grades of materials shown in Table 1 below were dissolved in acetone, which were then mixed with nine volumes of water containing 110 ppm Triton X-100. The fungicide solutions were applied onto wheat seedlings using an automated booth sprayer to run-off. All sprayed plants were allowed to air dry prior to further handling. All fungicides were evaluated using the aforementioned method for their activity vs. all target diseases. Wheat plants (variety Yuma) were grown from seed in a greenhouse in 50% mineral soil/50% soil-less Metro mix until the first leaf was fully emerged, with 7-10 seedlings per pot. These plants were inoculated with an aqueous spore suspension of Septoria tritici either prior to or after fungicide treatments. After inoculation the plants were kept in 100% relative humidity (one day in a dark dew chamber followed by two to three days in a lighted dew chamber at 20° C.) to permit spores to germinate and infect the leaf. The plants were then transferred to a greenhouse set at 20° C. for disease to develop. When disease symptoms were fully expressed on the 1st leaves of untreated plants, infection levels were assessed on a scale of 0 to 100 percent disease severity. Percent disease control was calculated using the ratio of disease severity on treated plants relative to untreated plants.
# [2] = test system: Puccinia triticina; synonym: Puccinia recondita f. sp. tritici (PUCCRT); assay: Fungicidal activity: wheat brown rust (PUCCRT), wheat seedlings sprayed and inoculated; format: in vivo; details: 50 ppm, wheat plants (variety Yuma); for PUCCRT 1DC (% disease control rating): 1 Day Curative; for PUCCRT 1DP (% disease control rating): 1 Day Protectant
SMILES,SEPTTR 1DP (% disease control rating) [1],SEPTTR 3DC (% disease control rating) [1],PUCCRT 1DC (% disease control rating) [2],PUCCRT 1DP (% disease control rating) [2]
"CC(=O)c1nnnn1CC(O)(c1ccc(F)cc1F)C(F)(F)c1ccc(Oc2ccc(C#N)cc2)cn1 (stereo not shown) [—C(O)Me, 4-((6-(3-(5-acetyl-1H-tetrazol-1-yl)-2-(2,4-difluorophenyl)-1,1-difluoro-2-hydroxypropyl)pyridin-3-yl)oxy)benzonitrile]",A (80-100),A (80-100),A (80-100),A (80-100)
"N#Cc1ccc(Oc2ccc(C(F)(F)C(O)(Cn3nnnc3C(=O)c3ccccc3)c3ccc(F)cc3F)nc2)cc1 (stereo not shown) [—C(O)Ph, 4-((6-(3-(5-benzoyl-1H-tetrazol-1-yl)-2-(2,4-difluorophenyl)-1,1-difluoro-2-hydroxypropyl)pyridin-3-yl)oxy)benzonitrile]",C (40-59),C (40-59),D (<40),A (80-100)
"CCOC(=O)c1nnnn1CC(O)(c1ccc(F)cc1F)C(F)(F)c1ccc(Oc2ccc(C#N)cc2)cn1 (stereo not shown) [—CO2Et, ethyl 1-(3-(5-(4-cyanophenoxy)pyridin-2-yl)-2-(2,4-difluorophenyl)-3,3-difluoro-2-hydroxypropyl)-1H-tetrazole-5-carboxylate]",A (80-100),A (80-100),A (80-100),A (80-100)
"Cc1ccc(S(=O)(=O)c2nnnn2CC(O)(c2ccc(F)cc2F)C(F)(F)c2ccc(Oc3ccc(C#N)cc3)cn2)cc1 (stereo not shown) [—SO2(4-MePh), 4-((6-(2-(2,4-difluorophenyl)-1,1-difluoro-2-hydroxy-3-(5-tosyl-1H-tetrazol-1-yl)propyl)pyridin-3-yl)oxy)benzonitrile]",C (40-59),D (<40),A (80-100),D (<40)

# — patent US9914726B2, “2-(2,4-difluorophenyl)-1,1-difluoro-1-(5-substituted-pyridin-2-yl)-3-(1H-tetrazol-1-yl)propan-2-ols and processes for their preparation” (Viamet Pharmaceuticals, Inc., priority 2014, dated 2018)
